Laboratory results as given in paper PMC4104137 (2014).

Experiments:
[1] = test system: G28A (RNA, aptamer) GGACGCGACCGAAAUGGUGAAGGACGGAUCCAGUGCGAAACACGCACUGUUGAGUAGAGUGUGAGCUCCGUAACUGGUCGCGUC; assay: fluorescence activation titration, Hill fit; conditions: 100 mM K+, 5 mM Mg2+; 30 nM RNA; 10 mM Tris pH 7.5
[2] = test system: dU50 (RNA, aptamer, 2'-deoxyuridine at 37 (U50 in full-length numbering)) GGGGAGAAGGACGGGUCCAGUGCGAAACACGCACUGUUGAGUAGAGUGUGAGCUCCC; assay: fluorescence activation titration, Hill fit; conditions: 100 mM K+, 5 mM Mg2+; 30 nM RNA; 10 mM Tris pH 7.5

- KD [1]: 4400 ± 800 nM
- KD [2]: 1100 ± 300 nM
SMILES: CC1=N/C(=C\c2cc(F)c(O)c(F)c2)C(=O)N1C
